According to patent US9120749B2, “Quinoline derivatives and MELK inhibitors containing the same” (ONCOTHERAPY SCIENCE, INC., priority 2010, dated 2015):
Where a name gives a salt, the structure may show the parent alone. Read-outs that look alike come from different tables or passages of the source.

How the values were obtained:
MELK = MELK (Homo sapiens, UniProt Q14680); experiment: Kinase assay: MELK activity, phosphorylation of FITC-labeled histone H3 peptide measured by IMAP fluorescence polarization; format: biochemical; conditions: read-out: IC50 (μM) (kinase assay)
Sequence of MELK (Q14680 whole entry, looked up): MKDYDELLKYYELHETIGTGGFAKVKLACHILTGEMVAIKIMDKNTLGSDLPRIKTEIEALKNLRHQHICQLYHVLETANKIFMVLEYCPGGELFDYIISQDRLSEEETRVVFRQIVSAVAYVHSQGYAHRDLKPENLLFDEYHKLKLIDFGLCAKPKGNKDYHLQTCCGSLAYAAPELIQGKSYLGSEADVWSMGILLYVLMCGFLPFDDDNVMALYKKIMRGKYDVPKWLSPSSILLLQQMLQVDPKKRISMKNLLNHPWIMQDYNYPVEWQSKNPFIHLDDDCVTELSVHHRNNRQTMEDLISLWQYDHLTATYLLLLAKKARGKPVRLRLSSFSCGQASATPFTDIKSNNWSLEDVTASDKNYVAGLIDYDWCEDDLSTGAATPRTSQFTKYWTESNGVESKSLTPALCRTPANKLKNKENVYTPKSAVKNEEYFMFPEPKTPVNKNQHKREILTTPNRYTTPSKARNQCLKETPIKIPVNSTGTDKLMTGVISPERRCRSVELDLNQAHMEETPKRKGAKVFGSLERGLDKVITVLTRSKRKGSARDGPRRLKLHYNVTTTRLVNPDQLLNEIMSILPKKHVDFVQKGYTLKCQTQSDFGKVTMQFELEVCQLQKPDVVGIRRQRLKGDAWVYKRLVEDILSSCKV
Procedure, shortened: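 Substrate is FITC-labeled histone H3 peptide. Compounds come from a 12.5 mM DMSO stock, diluted so assay DMSO is 1%. The stop step adds threefold-volume progressive binding solution, followed by 0.5 h at room temperature and an FP read.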

T47D cells = experiment: Cell-based assay: anti-proliferative activity, Cell Counting Kit-8, 72 hours (T47D); conditions: Homo sapiens, T47D, 72 h
Method: (§1) To evaluate the expression status of MELK in several cell lines, western blot analysis was performed using crude cell lysate collected from those cells. Anti-MELK antibody (clone 31, BD Biosciences) was used to visualize the expression.
(§2) Active candidate inhibitors against MELK were evaluated for their target-specific cytotoxicity using T47D, A549, BT-549, and HT-1197 cells was used for negative control. 100 micro-L of cell suspension was seeded onto 96-well microtiter plate (ViewPlate-96FTC, PerkinElmer). The initial cell concentration of T47D, A549, BT-549, and HT-1197 were 3,000 cells/well, 2,000 cells/well and 2,500 cells/well, respectively. Cellular growth was determined using Cell Counting Kit-8 (DOJINDO) at 72 hours after the exposure of the candidate inhibitors. […] Accurate IC50 values were calculated as described previously.

A549 cells = experiment: Cell-based assay: anti-proliferative activity, Cell Counting Kit-8, 72 hours (A549); conditions: Homo sapiens, A549, 72 h, 72 hours
Method: as §2, with “100” for “Active candidate inhibitors against MELK were evaluated for their target-specific cytotoxicity using T47D, A549, BT-549, and HT-1197 cells was used for negative control. 100”

HT-1197 cells = experiment: Cell-based assay: anti-proliferative activity, Cell Counting Kit-8, 72 hours (HT-1197, negative control without MELK expression); conditions: Homo sapiens, HT1197, 72 h, HT1197 cells (negative control, no MELK expression), 72 hours
Method: as §1, §2

DU4475 cells = experiment: Cell-based assay: anti-proliferative activity, Cell Counting Kit-8, 72 hours (DU4475); conditions: Homo sapiens, DU-4475, 72 h
[1] = 50 micro-M ATP, FITC-labeled histone H3 peptide substrate, IMAP fluorescence polarization

| SMILES | IC50 (MELK) | IC50 (T47D cells) | IC50 (A549 cells) | IC50 (HT-1197 cells) | IC50 (DU4475 cells) | IC50 (MELK; [1]) |
| --- | --- | --- | --- | --- | --- | --- |
| N[C@H]1CC[C@H](n2cc(Nc3c(C(=O)C4CC4)cnc4ccc(-c5cc(Cl)c(O)c(Cl)c5)cc34)cn2)CC1 [Example 706, (4-((1-(trans-4-aminocyclohexyl)-1H-pyrazol-4-yl)amino)-6-(3,5-dichloro-4-hydroxyphenyl)quinolin-3-yl)(cyclopropyl)methanone dihydrochloride] | 0.0011 µM | 0.042 µM | 0.59 µM | 7.9 µM | 0.02 µM | – |
| COc1cc(-c2ccc3ncc(C(C)=O)c(Nc4cccc(CCN(C)C)c4)c3c2)cc(Cl)c1O [Example 730, 1-(6-(3-chloro-4-hydroxy-5-methoxyphenyl)-4-(3-(2-(dimethylamino)ethyl)phenylamino)quinolin-3-yl)ethanone] | 0.0026 µM | 2.1 µM | 0.82 µM | 8 µM | 0.69 µM | – |
| CC(C)C(=O)c1cnc2ccc(-c3cc(F)c(O)c(Cl)c3)cc2c1Nc1ccc(N2CCNCC2)nc1 [Example 674, 1-(6-(3-chloro-5-fluoro-4-hydroxyphenyl)-4-(6-(piperazin-1-yl)pyridin-3-ylamino)quinolin-3-yl)-2-methylpropan-1-one] | 0.0069 µM | 0.11 µM | 0.46 µM | 2.4 µM | 0.15 µM | – |
| N[C@H]1CCCN(c2ccc(Nc3c(C(=O)C4CC4)cnc4ccc(-c5cc(F)c(O)c(Cl)c5)cc34)cn2)C1 [Example 648, (S)-(4-(6-(3-aminopiperidin-1-yl)pyridin-3-ylamino)-6-(3-chloro-5-fluoro-4-hydroxyphenyl)quinolin-3-yl)(cyclopropyl)methanone] | 0.0019 µM | 0.0095 µM | 0.013 µM | 0.28 µM | 0.0046 µM | – |
| COc1cc(-c2ccc3ncc(C(C)=O)c(Nc4ccc(N5CCNCC5)nc4)c3c2)cc(Cl)c1O [Example 704, 1-(6-(3-chloro-4-hydroxy-5-methoxyphenyl)-4-(6-(piperazin-1-yl)pyridin-3-ylamino)quinolin-3-yl)ethanone hydrochloride] | 0.0023 µM | 0.17 µM | 0.2 µM | 2.1 µM | 0.12 µM | – |
| CN(C)C1CCN(C[C@H]2CC[C@H](Nc3c(C(=O)C4CC4)cnc4ccc(-c5cc(Cl)c(O)c(Cl)c5)cc34)CC2)C1 (stereo partly shown) [Example 663] | – | 0.32 µM | 0.22 µM | 4.6 µM | 0.17 µM | – |
| CN(C)C1CCN(Cc2ccc(Nc3c(C(=O)C4CC4)cnc4ccc(-c5cc(Cl)c(O)c(Cl)c5)cc34)cc2)C1 (stereo not shown) [Example 694, cyclopropyl(6-(3,5-dichloro-4-hydroxyphenyl)-4-(4-((3-(dimethylamino)pyrrolidin-1-yl)methyl)phenylamino)quinolin-3-yl)methanone] | – | 0.41 µM | 0.15 µM | 7.5 µM | 0.12 µM | – |
| COc1cc(-c2ccc3ncc(C(C)=O)c(Nc4ccc(CN5CCN(C)CC5)cc4)c3c2)cc(Cl)c1O [Example 653, 1-(6-(3-chloro-4-hydroxy-5-methoxyphenyl)-4-(4-((4-methylpiperazin-1-yl)methyl)phenylamino)quinolin-3-yl)ethanone] | – | 1.3 µM | 0.5 µM | 1.9 µM | 0.32 µM | – |
| CS(=O)(=O)c1cnc2ccc(-c3cc(F)c(O)c(Cl)c3)cc2c1N1CCC(CN2CCCC2)CC1 [Example 407, 2-chloro-6-fluoro-4-(3-(methylsulfonyl)-4-(4-(pyrrolidin-1-ylmethyl)piperidin-1-yl)quinolin-6-yl)phenol] | – | 0.75 µM | 3.8 µM | 6.5 µM | – | 0.0051 µM |
| CN1CCN(C[C@H]2CC[C@H](Nc3c(C(=O)C4CC4)cnc4ccc(-c5cc(F)c(O)c(Cl)c5)cc34)CC2)CC1 [Example 636] | – | 0.16 µM | 0.2 µM | 0.94 µM | 0.18 µM | – |
| CN(C)CCNC(=O)c1ccc(-c2c(C(=O)C3CC3)cnc3ccc(-c4cc(Cl)c(O)c(Cl)c4)cc23)cc1 [Example 451] | – | 0.68 µM | 3.8 µM | 17 µM | – | 0.0025 µM |
| CN(C)Cc1ccc(Nc2c(C#N)cnc3ccc(-c4cc(F)c(O)c(Cl)c4)cc23)cc1 [Example 432, 6-(3-chloro-5-fluoro-4-hydroxyphenyl)-4-(4-((dimethylamino)methyl)phenylamino)quinoline-3-carbonitrile] | – | 0.98 µM | 1.1 µM | 4.9 µM | – | 0.056 µM |
| CN(C)CC(=O)N1CCN(c2c(C(=O)C3CC3)cnc3ccc(-c4cc(F)c(O)c(Cl)c4)cc23)CC1 [Example 442, 1-(4-(6-(3-chloro-5-fluoro-4-hydroxyphenyl)-3-(cyclopropanecarbonyl)quinolin-4-yl)piperazin-1-yl)-2-(dimethylamino)ethanone] | – | 0.74 µM | 1.5 µM | 5.5 µM | – | 0.0035 µM |
| CC(=O)c1cnc2ccc(-c3cc(Cl)c(O)c(Cl)c3)cc2c1N[C@H]1CC[C@H](CCN(C)C)CC1 [Example 739, 1-(6-(3,5-dichloro-4-hydroxyphenyl)-4-((trans-4-(2-(dimethylamino)ethyl)cyclohexyl)amino)quinolin-3-yl)ethanone] | – | 0.14 µM | – | 4 µM | 0.099 µM | – |
| CN(C)CC1CCN(c2c(C(=O)C3CCCC3)cnc3ccc(-c4ccc(O)c(Cl)c4)cc23)CC1 [Example 389, (6-(3-chloro-4-hydroxyphenyl)-4-(4-((dimethylamino)methyl)piperidin-1-yl)quinolin-3-yl)(cyclopentyl)methanone] | – | 2.9 µM | 1.7 µM | 6.9 µM | – | 0.031 µM |
| CN(C)C[C@H]1CC[C@H](Nc2c(S(C)(=O)=O)cnc3ccc(-c4ccc(O)c(Cl)c4)cc23)CC1 [Example 424] | – | 0.43 µM | 0.79 µM | 1.1 µM | – | 0.013 µM |
| O=C(c1cnc2ccc(-c3cc(F)c(O)c(Cl)c3)cc2c1N1CCN(CCN2CCCC2)C(=O)C1)C1CC1 [Example 440, 4-(6-(3-chloro-5-fluoro-4-hydroxyphenyl)-3-(cyclopropanecarbonyl)quinolin-4-yl)-1-(2-(pyrrolidin-1-yl)ethyl)piperazin-2-one] | – | 1.1 µM | 5.1 µM | 10 µM | – | 0.0044 µM |
| N#Cc1cnc2ccc(-c3ccc(O)c(Cl)c3)cc2c1N1CCC(CN2CCCC2)CC1 [Example 433, 6-(3-chloro-4-hydroxyphenyl)-4-(4-(pyrrolidin-1-ylmethyl)piperidin-1-yl)quinoline-3-carbonitrile] | – | 0.54 µM | 0.7 µM | 3.7 µM | – | 0.043 µM |
| CN(C)CC1CCN(c2c(C(=O)C3CC3)cnc3ccc(-c4ccc5cc(O)ccc5c4)cc23)CC1 [Example 449] | – | 1.8 µM | 0.64 µM | 3.3 µM | – | 0.014 µM |
| O=C(c1cnc2ccc(-c3ccc(O)c(Cl)c3)cc2c1N1CCN(CCN2CCCC2)CC1)C1CC1 [Example 403, (6-(3-chloro-4-hydroxyphenyl)-4-(4-(2-(pyrrolidin-1-yl)ethyl)piperazin-1-yl)quinolin-3-yl)(cyclopropyl)methanone] | – | 4.5 µM | 1.3 µM | 10 µM | – | 0.011 µM |
| CN1CCN(c2ccc(-c3c(C(=O)C4CC4)cnc4ccc(-c5cc(Cl)c(O)c(Cl)c5)cc34)cc2)CC1 [Example 430, cyclopropyl(6-(3,5-dichloro-4-hydroxyphenyl)-4-(4-(4-methylpiperazin-1-yl)phenyl)quinolin-3-yl)methanone] | – | 1.3 µM | 2.7 µM | 9.2 µM | – | 0.033 µM |
| CN(C)Cc1ccc(-c2c(C(=O)C3CC3)cnc3ccc(-c4cc(Cl)c(O)c(Cl)c4)cc23)cc1 [Example 431, cyclopropyl(6-(3,5-dichloro-4-hydroxyphenyl)-4-(4-((dimethylamino)methyl)phenyl)quinolin-3-yl)methanone] | – | 0.97 µM | 0.59 µM | 7.5 µM | – | 0.0039 µM |
| O=C(c1cnc2ccc(-c3cc(Cl)c(O)c(Cl)c3)cc2c1-c1ccc(N2CCNCC2)nc1)C1CC1 [Example 459] | – | 0.83 µM | 1.9 µM | 10 µM | – | 0.0091 µM |
| N#Cc1cnc2ccc(-c3cc(F)c(O)c(Cl)c3)cc2c1N1CCC(CN2CCCC2)CC1 [Example 434, 6-(3-chloro-5-fluoro-4-hydroxyphenyl)-4-(4-(pyrrolidin-1-ylmethyl)piperidin-1-yl)quinoline-3-carbonitrile] | – | 0.45 µM | 1.1 µM | 10 µM | – | 0.035 µM |
